Measured values from patent US20220008553A1, “ANTI-ERBB2 ANTIBODY-DRUG CONJUGATE AND COMPOSITION THEREOF, PREPARATION METHOD THEREFOR, AND USE THEREOF” (SICHUAN KELUN-BIOTECH BIOPHARMACEUTICAL CO., LTD., priority 2015, published 2022).

Columns and labels:
[1] = system: breast cancer cell line BT474; details: mouse, in vivo
Method: (§1) The change of tumor volume and animal weight were measured for calculation of the efficacy (tumor-inhibitory efficacy) of the antibody-drug conjugates in the tumor-bearing mice.
(§2) After gently shaking, the mother solutions were sub-packed and stored at −80° C. Treatment solutions for use were obtained by dilution with normal saline, and a normal saline at the same concentration was used as solvent control.
(§3) The tumor-bearing mice (models obtained in 1.2) with tumor volume of 100-200 mm^3 were randomly assigned (the number of samples in each group was determined according to sample quantity), 7 mice per group. The dosage was 10 ml/kg. The route of administration was single intravenous injection in caudal vein. After administration, the tumor diameter was measured with vernier caliper twice a week for an observation period of 8 weeks, and the tumor volume was calculated according to the following equation: V=0.5 a^2×b, wherein a and b represent the […] of the tumor, respectively. Animal deaths were observed and recorded daily.
(§4) The tumor growth inhibition TGI (%) was calculated with the following equation for evaluating the antitumor efficacy of the antibody-drug conjugates: […]

[2] = system: human gastric cancer cell line NCI-N87; details: mouse, in vivo
Method: as §1, §2, §3, §4

[3] = system: ovarian cancer cell line SK-OV-3; details: mouse, in vivo
Method: as §1, §2, §3, §4

BT-474 (HER2+++) = details: 1 h incubation, FACS
Method: (§5) The fluorescent intensity of cell surface binding was measured with FACS to determine the affinity of the drugs to the above cells.

JIMT-1 (HER2+) = details: 1 h incubation, FACS
Method: as §5

MDA-MB-468 (HER2−) = details: 1 h incubation, FACS
Method: as §5

JIMT-1 cells = details: 3 mg/kg, single injection via tail vein, 31st day after injection
Method: (§6) NOD/SCID mice were subcutaneously inoculated with JIMT-1 cells to establish a subcutaneous xenograft model of human-derived breast cancer. […] Each group has 8 mice, and the administration was a single injection via tail vein. Tumor volume was measured on the 31st day after the single injection (i.e., 43rd day after inoculation of JIMT-1 cells), and TGI was calculated. The efficacy was evaluated based on TGI, and the tolerance was evaluated based on body weight changes and death of the mice. TGI was calculated as described above in (1).

Calu-3 cells = details: 1 mg/kg, single injection via tail vein, 31st day after injection
Method: as §6, with “BALB/c Nude” for “NOD/SCID”, “Calu-3” for “JIMT-1”, “lung adenocarcinoma.” for “breast cancer.”, “(36th” for “(i.e., 43rd”

BR0438 tumor mass = details: 15 mg/kg, single injection via tail vein, 21st day after injection
Method: as §6, with “BR0438 tumor mass” for “JIMT-1 cells”, “cancer. The administration was conducted when the average tumor volume reached 173 mm^3.” for “cancer.”, “21st” for “31st”, “injection,” for “injection (i.e., 43rd day after inoculation of JIMT-1 cells),”

GA0006 tumor mass = details: 15 mg/kg, single injection via tail vein, 21st day after injection
Method: as §6, with “BALB/c nude” for “NOD/SCID”, “GA0006 tumor mass” for “JIMT-1 cells”, “gastric” for “breast”, “cancer. The administration was conducted when the average tumor volume reached 141 mm^3.” for “cancer.”, “21st” for “31st”, “injection,” for “injection (i.e., 43rd day after inoculation of JIMT-1 cells),”

BT-474 cells = details: 3 mg/kg, single injection via tail vein, 31st day after injection
Method: NOD/SCID mice were orthotopically inoculated with BT-474 cells to establish an orthotopic xenograft model of human-derived breast cancer. […] Each group has 10 mice, and the administration was a single injection via tail vein. Tumor volume was measured on the 31st day after the single injection (i.e., 39th day after inoculation of BT-474 cells), and TGI was calculated. The efficacy was evaluated based on TGI.
wherein VTe: Average tumor volume of treatment group at the end of observation • VTs: Average tumor volume of treatment group at the administration • VCe: Average tumor volume of control group at the end of observation • VCs: Average tumor volume of control group at the administration

T-DM1 was tested, and the “TGI (%)” value [1] was 54.80%, the “final tumor volume (mm^3)” value [2] was 774.76 mm^3 and the “TGI (%)” value [3] was −11.04%. The “affinity (EC50)” value (BT-474 (HER2+++)) was 2.419 µg/mL, the “affinity (EC50)” value (JIMT-1 (HER2+)) was 0.5105 µg/mL and the “affinity (EC50) (ng/ml)” value (MDA-MB-468 (HER2−)) was “No binding”. The “TGI (%)” value (JIMT-1 cells) was 28%, the “TGI (%)” value (Calu-3 cells) was 64% and the “TGI (%)” value (BR0438 tumor mass) was 3.65%. The “TGI (%)” value (GA0006 tumor mass) was 86.97% and the “TGI (%)” value (BT-474 cells) was 43%.
